# Experimental data reported in patent US9695155B2, “Herbicidal substituted pyrimidinyloxy benzene compounds” (E. I. DU PONT DE NEMOURS AND COMPANY, priority 2013, dated 2017).
# Tests used:
# large (Lg) crabgrass = experiment: Test A preemergence; assay type: in vivo, Digitaria sanguinalis; settings: for Crabgrass, Large plant response rating (0 to 100 scale): 125 g ai/ha; for Crabgrass, Large plant response rating: 500 g ai/ha, 0 to 100 scale where 0 is no effect and 100 is complete control
# In short: (§1)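 Compounds in non-phytotoxic solvent with surfactant applied as soil spray preemergence, or postemergence to plants 2-10 cm at one- to two-leaf stage, in loam/sand. After approximately 10 days in greenhouse, injury rated visually versus untreated controls, 0 (no effect) to 100 (complete control).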
# velvetleaf [1] = experiment: Test A preemergence; assay type: in vivo, Abutilon theophrasti; settings: for Velvetleaf plant response rating (0 to 100 scale): 125 g ai/ha; for Velvetleaf plant response rating: 500 g ai/ha, 0 to 100 scale where 0 is no effect and 100 is complete control
# In short: as §1
# corn [2] = experiment: Test A preemergence; assay type: in vivo, Zea mays; settings: for Corn plant response rating (0 to 100 scale): 125 g ai/ha; for Corn plant response rating: 500 g ai/ha, 0 to 100 scale where 0 is no effect and 100 is complete control
# In short: as §1
# barnyardgrass = experiment: Test A postemergence; assay type: in vivo, Echinochloa crus-galli; settings: 0 to 100 scale where 0 is no effect and 100 is complete control; for Barnyardgrass plant response rating: 125 g ai/ha; for Plant response rating, Barnyardgrass: 500 g ai/ha
# In short: as §1
# giant foxtail [3] = experiment: Test A postemergence; assay type: in vivo, Setaria faberii; settings: 0 to 100 scale where 0 is no effect and 100 is complete control; for Foxtail, Giant plant response rating: 125 g ai/ha; for Plant response rating, Foxtail, Giant: 500 g ai/ha
# In short: as §1
# morningglory [4] = experiment: Test A postemergence; assay type: in vivo, Ipomoea spp.; settings: 0 to 100 scale where 0 is no effect and 100 is complete control; for Morningglory plant response rating: 125 g ai/ha; for Plant response rating, Morningglory: 500 g ai/ha
# In short: as §1
# corn [5] = experiment: Test A postemergence; assay type: in vivo, Zea mays; settings: 0 to 100 scale where 0 is no effect and 100 is complete control; for Corn plant response rating: 125 g ai/ha; for Plant response rating, Corn: 500 g ai/ha
# In short: as §1
# Heteranthera limosa = experiment: Test B flooded paddy test; assay type: in vivo; settings: Flood, 250 g ai/ha; 0 to 100 scale where 0 is no effect and 100 is complete control
# In short: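 2-leaf stage plants; pots flooded to 3 cm, compound added to paddy water, depth maintained. Greenhouse 13–15 d. Visual rating vs untreated controls, 0 (no effect) to 100 (complete control); dash = no result.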
# corn [6] = experiment: Test C postemergence; assay type: in vivo, Zea mays; settings: for Plant response rating (0 to 100), Corn: 16 g ai/ha, 0 is no effect, 100 is complete control; for Corn plant response rating: 31 g ai/ha, 13 to 15 days; for Corn plant response rating / Plant response rating, Corn: scale 0 to 100 (0 no effect, 100 complete control)
# In short: (§2)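 Visual injury score versus untreated controls, 0 = no effect, 100 = complete control, taken 13 to 15 days after treatment in the greenhouse. Pre-emergence pots held loam/sand; post-emergence plants grew in sphagnum peat/vermiculite mix and were sprayed at the 1- to 4-leaf stage.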
# giant foxtail [7] = experiment: Test C postemergence; assay type: in vivo, Setaria faberii; settings: for Plant response rating (0 to 100), Foxtail, Giant: 16 g ai/ha, 0 is no effect, 100 is complete control; for Foxtail, Giant plant response rating: 31 g ai/ha, 13 to 15 days; for Foxtail, Giant plant response rating / Plant response rating, Foxtail, Giant: scale 0 to 100 (0 no effect, 100 complete control)
# In short: as §2
# johnsongrass = experiment: Test C postemergence; assay type: in vivo, Sorghum halepense; settings: for Plant response rating (0 to 100), Johnsongrass: 16 g ai/ha, 0 is no effect, 100 is complete control; for Johnsongrass plant response rating: 31 g ai/ha, 13 to 15 days; for Johnsongrass plant response rating / Plant response rating, Johnsongrass: scale 0 to 100 (0 no effect, 100 complete control)
# In short: as §2
# morningglory [8] = experiment: Test C postemergence; assay type: in vivo, Ipomoea coccinea; settings: for Plant response rating (0 to 100), Morningglory: 16 g ai/ha, 0 is no effect, 100 is complete control; for Morningglory plant response rating: 31 g ai/ha, 13 to 15 days; for Morningglory plant response rating / Plant response rating, Morningglory: scale 0 to 100 (0 no effect, 100 complete control)
# In short: as §2
# pigweed = experiment: Test C postemergence; assay type: in vivo, Amaranthus retroflexus; settings: for Plant response rating (0 to 100), Pigweed: 16 g ai/ha, 0 is no effect, 100 is complete control; for Pigweed plant response rating: 31 g ai/ha, 13 to 15 days; for Pigweed plant response rating / Plant response rating, Pigweed: scale 0 to 100 (0 no effect, 100 complete control)
# In short: as §2
# oilseed rape = experiment: Test C postemergence; assay type: in vivo, Brassica napus; settings: for Plant response rating (0 to 100), Oilseed Rape: 16 g ai/ha, 0 is no effect, 100 is complete control; for Oilseed Rape plant response rating: 31 g ai/ha, 13 to 15 days; for Oilseed Rape plant response rating / Plant response rating, Oilseed Rape: scale 0 to 100 (0 no effect, 100 complete control)
# In short: as §2
# waterhemp = experiment: Test C postemergence; assay type: in vivo, Amaranthus rudis; settings: for Plant response rating (0 to 100), Waterhemp: 16 g ai/ha, 0 is no effect, 100 is complete control; for Waterhemp plant response rating: 31 g ai/ha, 13 to 15 days; for Waterhemp plant response rating / Plant response rating, Waterhemp: scale 0 to 100 (0 no effect, 100 complete control)
# In short: as §2
# velvetleaf [9] = experiment: Test C postemergence; assay type: in vivo, Abutilon theophrasti; settings: for Plant response rating (0 to 100), Velvetleaf: 16 g ai/ha, 0 is no effect, 100 is complete control; for Velvetleaf plant response rating: 31 g ai/ha, 13 to 15 days; for Velvetleaf plant response rating / Plant response rating, Velvetleaf: scale 0 to 100 (0 no effect, 100 complete control)
# In short: as §2
# [10] = 125 g ai/ha, postemergence, visual rating
compound,measurement,setting,value
Cc1cnc(Oc2cccc(C#N)c2-n2cc(C(F)(F)F)cn2)nc1 [Compound 180],"Crabgrass, Large plant response rating (0 to 100 scale)",large (Lg) crabgrass,100
same,"Crabgrass, Large plant response rating",large (Lg) crabgrass,100
same,Velvetleaf plant response rating (0 to 100 scale),velvetleaf [1],100
same,Velvetleaf plant response rating,velvetleaf [1],100
same,Corn plant response rating (0 to 100 scale),corn [2],60
same,Corn plant response rating,corn [2],90
same,Barnyardgrass plant response rating,barnyardgrass,90
same,"Plant response rating, Barnyardgrass",barnyardgrass,100
same,"Foxtail, Giant plant response rating",giant foxtail [3],90
same,"Plant response rating, Foxtail, Giant",giant foxtail [3],90
same,Morningglory plant response rating,morningglory [4],100
same,"Plant response rating, Morningglory",morningglory [4],100
same,Corn plant response rating,corn [5],70
same,"Plant response rating, Corn",corn [5],90
same,"Plant response rating, Ducksalad",Heteranthera limosa,80
same,"Plant response rating (0 to 100), Corn",corn [6]; postemergence,0
same,Corn plant response rating,"corn [6]; postemergence, visual rating",5
same,"Plant response rating, Corn",corn [6]; [10],10
same,"Plant response rating, Corn","corn [6]; Postemergence, 62 g ai/ha",5
same,"Plant response rating (0 to 100), Foxtail, Giant",giant foxtail [7]; postemergence,5
same,"Foxtail, Giant plant response rating","giant foxtail [7]; postemergence, visual rating",5
same,"Plant response rating, Foxtail, Giant",giant foxtail [7]; [10],80
same,"Plant response rating, Foxtail, Giant","giant foxtail [7]; Postemergence, 62 g ai/ha",10
same,"Plant response rating (0 to 100), Johnsongrass",johnsongrass; postemergence,0
same,Johnsongrass plant response rating,"johnsongrass; postemergence, visual rating",0
same,"Plant response rating, Johnsongrass",johnsongrass; [10],5
same,"Plant response rating, Johnsongrass","johnsongrass; Postemergence, 62 g ai/ha",0
same,"Plant response rating (0 to 100), Morningglory",morningglory [8]; postemergence,45
same,Morningglory plant response rating,"morningglory [8]; postemergence, visual rating",65
same,"Plant response rating, Morningglory",morningglory [8]; [10],90
same,"Plant response rating, Morningglory","morningglory [8]; Postemergence, 62 g ai/ha",75
same,"Plant response rating (0 to 100), Pigweed",pigweed; postemergence,10
same,Pigweed plant response rating,"pigweed; postemergence, visual rating",55
same,"Plant response rating, Pigweed",pigweed; [10],70
same,"Plant response rating, Pigweed","pigweed; Postemergence, 62 g ai/ha",60
same,"Plant response rating (0 to 100), Oilseed Rape",oilseed rape; postemergence,15
same,Oilseed Rape plant response rating,"oilseed rape; postemergence, visual rating",25
same,"Plant response rating, Oilseed Rape",oilseed rape; [10],55
same,"Plant response rating, Oilseed Rape","oilseed rape; Postemergence, 62 g ai/ha",40
same,"Plant response rating (0 to 100), Waterhemp",waterhemp; postemergence,25
same,Waterhemp plant response rating,"waterhemp; postemergence, visual rating",60
same,"Plant response rating, Waterhemp",waterhemp; [10],75
same,"Plant response rating, Waterhemp","waterhemp; Postemergence, 62 g ai/ha",70
same,"Plant response rating (0 to 100), Velvetleaf",velvetleaf [9]; postemergence,30
same,Velvetleaf plant response rating,"velvetleaf [9]; postemergence, visual rating",40
same,"Plant response rating, Velvetleaf",velvetleaf [9]; [10],85
same,"Plant response rating, Velvetleaf","velvetleaf [9]; Postemergence, 62 g ai/ha",65
Clc1cnc(Oc2cccc(Cl)c2-n2cc(I)cn2)nc1 [Compound 181],"Crabgrass, Large plant response rating (0 to 100 scale)",large (Lg) crabgrass,100
same,"Crabgrass, Large plant response rating",large (Lg) crabgrass,100
same,Velvetleaf plant response rating (0 to 100 scale),velvetleaf [1],20
same,Velvetleaf plant response rating,velvetleaf [1],40
same,Corn plant response rating (0 to 100 scale),corn [2],0
same,Corn plant response rating,corn [2],30
same,Barnyardgrass plant response rating,barnyardgrass,60
same,"Plant response rating, Barnyardgrass",barnyardgrass,90
same,"Foxtail, Giant plant response rating",giant foxtail [3],70
same,"Plant response rating, Foxtail, Giant",giant foxtail [3],90
same,Morningglory plant response rating,morningglory [4],90
same,"Plant response rating, Morningglory",morningglory [4],100
same,Corn plant response rating,corn [5],40
same,"Plant response rating, Corn",corn [5],40
same,"Plant response rating, Ducksalad",Heteranthera limosa,75
same,"Plant response rating (0 to 100), Corn",corn [6]; postemergence,5
same,Corn plant response rating,"corn [6]; postemergence, visual rating",5
same,"Plant response rating, Corn",corn [6]; [10],5
same,"Plant response rating, Corn","corn [6]; Postemergence, 62 g ai/ha",5
same,"Plant response rating (0 to 100), Foxtail, Giant",giant foxtail [7]; postemergence,10
same,"Foxtail, Giant plant response rating","giant foxtail [7]; postemergence, visual rating",10
same,"Plant response rating, Foxtail, Giant",giant foxtail [7]; [10],10
same,"Plant response rating, Foxtail, Giant","giant foxtail [7]; Postemergence, 62 g ai/ha",25
same,"Plant response rating (0 to 100), Johnsongrass",johnsongrass; postemergence,0
same,Johnsongrass plant response rating,"johnsongrass; postemergence, visual rating",5
same,"Plant response rating, Johnsongrass",johnsongrass; [10],20
same,"Plant response rating, Johnsongrass","johnsongrass; Postemergence, 62 g ai/ha",5
same,"Plant response rating (0 to 100), Morningglory",morningglory [8]; postemergence,15
same,Morningglory plant response rating,"morningglory [8]; postemergence, visual rating",20
same,"Plant response rating, Morningglory",morningglory [8]; [10],98
same,"Plant response rating, Morningglory","morningglory [8]; Postemergence, 62 g ai/ha",75
same,"Plant response rating (0 to 100), Pigweed",pigweed; postemergence,85
same,Pigweed plant response rating,"pigweed; postemergence, visual rating",98
same,"Plant response rating, Pigweed",pigweed; [10],98
same,"Plant response rating, Pigweed","pigweed; Postemergence, 62 g ai/ha",85
same,"Plant response rating (0 to 100), Oilseed Rape",oilseed rape; postemergence,55
same,Oilseed Rape plant response rating,"oilseed rape; postemergence, visual rating",60
same,"Plant response rating, Oilseed Rape",oilseed rape; [10],100
same,"Plant response rating, Oilseed Rape","oilseed rape; Postemergence, 62 g ai/ha",60
same,"Plant response rating (0 to 100), Waterhemp",waterhemp; postemergence,80
same,Waterhemp plant response rating,"waterhemp; postemergence, visual rating",85
same,"Plant response rating, Waterhemp",waterhemp; [10],98
same,"Plant response rating, Waterhemp","waterhemp; Postemergence, 62 g ai/ha",85
same,"Plant response rating (0 to 100), Velvetleaf",velvetleaf [9]; postemergence,25
same,Velvetleaf plant response rating,"velvetleaf [9]; postemergence, visual rating",20
same,"Plant response rating, Velvetleaf",velvetleaf [9]; [10],70
same,"Plant response rating, Velvetleaf","velvetleaf [9]; Postemergence, 62 g ai/ha",40
